Assay results from patent EP0687685A1, “PHYSIOLOGICALLY ACTIVE PEPTIDE” (TEIJIN LIMITED, priority 1993, dated 1994).
Positions of bridges follow the written chain, without caps; N, C: chain ends. Residues, ends and D or L forms follow the SMILES beside them. *: point of attachment. Mob = COc1ccc(C*)cc1

Assays:
human type II PLA₂ [1] = target: T1, human type II PLA₂ (Homo sapiens, UniProt P14555); experiment: Inhibition of binding between heparin and human II-type PLA₂ (heparin-bound plate, biotinated PLA₂)
T1 construct: made in house; host or cells: Sf9 insect cells, baculovirus (AcNPV), vector pAcTJI1; purified from culture supernatant
T1 sequence (P14555 21-144): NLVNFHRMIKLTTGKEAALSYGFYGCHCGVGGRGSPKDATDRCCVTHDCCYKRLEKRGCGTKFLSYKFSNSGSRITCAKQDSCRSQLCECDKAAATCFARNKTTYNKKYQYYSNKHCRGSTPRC
Method: 500 µg of human type II (non-pancreatic) purified in Reference Example 1 was reacted with 2 ml of a solution of 5 mM sulfosuccinyl 6-(biotinamide hexose) in 0.1M NaHCO₃ at a room temperature for one hour, and the product was purified by a heparin Sepharose column to obtain biotinated human type II PLA₂.
50 µl of a phosphate buffered saline (PBS) containing 50 µg/ml poly-L-lysine was added to each well of a 96-well ELISA plate, and after incubation at room temperature for an hour, each well was twice washed with PBS, 50 µl of PBS solution containing 20 µg/ml heparin was added to each well, and a reaction was further carried out at a room temperature for an hour. Each well was twice washed with PBS, 200 µl of PBS solution containing 30 mg/ml bovine serum albumin (BSA) was added to each well, and after reaction at 37°C for an hour, the plate was stored at 4°C.
To each well of a peparin-bound plate prepared in Reference Example 3, 50 µl of a solution containing a peptide obtained in Examples 1 to 10 was added. After incubating at room temperature for 45 minutes, 50 µg/ml biotinated human II-type PLA₂ obtained in Example 2 was added thereon, and reaction was further carried out at room temperature for an hour. Each well was washed three times with PBS containing 0.05% Tween 20, 50 µl of a 3% BSA/PBS solution containing alkaline phosphatase-conjugated streptoavidin (Taga, ×2000 dilution) was added thereon, and a reaction was carried out at a room temperature for an hour. Each well was washed three times with PBS containing 0.05% Tween 20, 100 µl of a 1 mM p-nitrophenylphosphate/1M ethanolamine aqueous solution (pH 9.8) was added thereon, and a reaction was carried out at room temperature for an hour. Absorption of reaction mixture was measured at 405 nm using a microplate reader (Molecular Device Inc). A result is shown in Fig. 9, and IC₅₀ (µM) was also obtained.

human type II PLA₂ [2] = target: T1, human type II PLA₂; experiment: Enzyme inhibition of human type II PLA₂ in the presence of heparin, radiolabeled synthetic phospholipid (method of Dole); type: biochemical

Row | inhibitory activity to binding of human type II PLA₂ to heparin (human type II PLA₂ [1]) | inhibitory activity to type II PLA₂ enzyme (human type II PLA₂ [2]; in the presence of heparin) | inhibition at 1 µg/mL (human type II PLA₂ [2]; peptide 1 µg/ml, heparin 50 µg/ml, PLA₂ enzyme 200 ng/ml) [%] | remaining activity at 1 µg/mL (human type II PLA₂ [2]; peptide 1 µg/ml, heparin 50 µg/ml, PLA₂ enzyme 200 ng/ml, read-out: PLA₂enzyme activity (%)) [%] | inhibition at 5 µg/mL (human type II PLA₂ [2]; peptide 5 µg/ml, heparin 50 µg/ml, PLA₂ enzyme 200 ng/ml) [%] | remaining activity at 5 µg/mL (human type II PLA₂ [2]; peptide 5 µg/ml, heparin 50 µg/ml, PLA₂ enzyme 200 ng/ml, read-out: PLA₂enzyme activity (%)) [%] | inhibition at 10 µg/mL (human type II PLA₂ [2]; peptide 10 µg/ml, heparin 50 µg/ml, PLA₂ enzyme 200 ng/ml) [%] | remaining activity at 10 µg/mL (human type II PLA₂ [2]; peptide 10 µg/ml, heparin 50 µg/ml, PLA₂ enzyme 200 ng/ml, read-out: PLA₂enzyme activity (%)) [%] | inhibition at 50 µg/mL (human type II PLA₂ [2]; peptide 50 µg/ml, heparin 50 µg/ml, PLA₂ enzyme 200 ng/ml) [%] | remaining activity at 50 µg/mL (human type II PLA₂ [2]; peptide 50 µg/ml, heparin 50 µg/ml, PLA₂ enzyme 200 ng/ml, read-out: PLA₂enzyme activity (%)) [%] | inhibition at 100 µg/mL (human type II PLA₂ [2]; peptide 100 µg/ml, heparin 50 µg/ml, PLA₂ enzyme 200 ng/ml) [%] | remaining activity at 100 µg/mL (human type II PLA₂ [2]; peptide 100 µg/ml, heparin 50 µg/ml, PLA₂ enzyme 200 ng/ml, read-out: PLA₂enzyme activity (%)) [%] | SMILES
1 | strong inhibitory activity |  |  |  |  |  |  |  |  |  |  |  | COc1ccc(CSC[C@H](NC(=O)CNC(=O)[C@H](CCCNC(=N)N)NC(=O)[C@@H](N)CCCCN)C(=O)NCC(=O)N[C@H](C(=O)N[C@@H](CCCCN)C(=O)N[C@@H](Cc2ccccc2)C(=O)N[C@@H](CC(C)C)C(=O)N[C@@H](CO)C(=O)N[C@@H](Cc2ccc(O)cc2)C(=O)N[C@@H](CCCCN)C(=O)N[C@@H](Cc2ccccc2)C(=O)N[C@@H](CO)C(=O)N[C@@H](CS)C(=O)O)[C@@H](C)O)cc1 [Peptide (6)] (H-KRGC(Mob)GTKFLSYKFSC-OH; N-terminus and C-terminus assumed)
2 | strong inhibitory activity | inhibitory activity | 10 | 90 | 59 | 41 | 72 | 28 | 82 | 18 | 90 | 10 | CC(C)C[C@@H]1NC(=O)[C@H](Cc2ccccc2)NC(=O)[C@H](CCCCN)NC(=O)[C@H]([C@@H](C)O)NC(=O)CNC(=O)[C@@H](NC(=O)CNC(=O)[C@H](CCCNC(=N)N)NC(=O)[C@@H](N)CCCCN)CSSC[C@@H](C(=O)O)NC(=O)[C@H](CO)NC(=O)[C@H](Cc2ccccc2)NC(=O)[C@H](CCCCN)NC(=O)[C@H](Cc2ccc(O)cc2)NC(=O)[C@H](CO)NC1=O [Peptide (20)] (H-KRGCGTKFLSYKFSC-OH; disulfide 4-15 (inferred); N-terminus and C-terminus assumed)
